Results reported in ChEMBL document CHEMBL1127793 (J Med Chem, 1994).
Active and inactive are the calls of the source. The calls are words filed in the database; no cut-off is given here.

Key:
Cavia porcellus = species on record: Cavia porcellus; assay: Tested for the inhibitory activity against neutrophil infiltration in response to LTB4 in guinea pig; assay type: functional
[1] = target: Leukotriene B4 receptor 1 (Mus musculus, UniProt O88855); assay: Tested for antagonistic activity in mouse spleen membrane against LTB4 receptor; assay type: functional, cell membranes
Leukotriene B4 receptor 1, sequence (O88855 whole entry): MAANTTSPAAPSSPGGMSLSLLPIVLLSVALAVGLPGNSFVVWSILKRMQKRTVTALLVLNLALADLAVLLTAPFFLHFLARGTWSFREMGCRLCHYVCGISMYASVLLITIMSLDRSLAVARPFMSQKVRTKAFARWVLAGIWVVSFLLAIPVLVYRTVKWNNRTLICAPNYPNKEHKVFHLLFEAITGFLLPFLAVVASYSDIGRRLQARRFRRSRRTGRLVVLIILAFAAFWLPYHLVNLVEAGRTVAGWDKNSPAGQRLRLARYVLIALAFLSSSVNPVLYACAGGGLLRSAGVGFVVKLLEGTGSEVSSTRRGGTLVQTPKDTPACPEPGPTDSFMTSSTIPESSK

Homo sapiens [2] = species on record: Homo sapiens; assay: Tested for inhibitory activity against LTB4 induced chemotaxis of human neutrophils; assay type: functional
Mus musculus = assay: Oral administration of compound in 0.5% methyl cellulose inhibits the LTB4-induced response; assay type: functional
Homo sapiens [3] = species on record: Homo sapiens; assay: Tested for inhibitory activity against LTB4 induced up-regulation of CD11b on human neutrophils; assay type: functional
[4] = target: T1, Prostaglandin G/H synthase 2 (Ovis aries) (UniProt P79208); assay: Tested for inhibition of the Prostaglandin G/H synthase at 10 uM conc.; No inhibition
T1 sequence (whole entry): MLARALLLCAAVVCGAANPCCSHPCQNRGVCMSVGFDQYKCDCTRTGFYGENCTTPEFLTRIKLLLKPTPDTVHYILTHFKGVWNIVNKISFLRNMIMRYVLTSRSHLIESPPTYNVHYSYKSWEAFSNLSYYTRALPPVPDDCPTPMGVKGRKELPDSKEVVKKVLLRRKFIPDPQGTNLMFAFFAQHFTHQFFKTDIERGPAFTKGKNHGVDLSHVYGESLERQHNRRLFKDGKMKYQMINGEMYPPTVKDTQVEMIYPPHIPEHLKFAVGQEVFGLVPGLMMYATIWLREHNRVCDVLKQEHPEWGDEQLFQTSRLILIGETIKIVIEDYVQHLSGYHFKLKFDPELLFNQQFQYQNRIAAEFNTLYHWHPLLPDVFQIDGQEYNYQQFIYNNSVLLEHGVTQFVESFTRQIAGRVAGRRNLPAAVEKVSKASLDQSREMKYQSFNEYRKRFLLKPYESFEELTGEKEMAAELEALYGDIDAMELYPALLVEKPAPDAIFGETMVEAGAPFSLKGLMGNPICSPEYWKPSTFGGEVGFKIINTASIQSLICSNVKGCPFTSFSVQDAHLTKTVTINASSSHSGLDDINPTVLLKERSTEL

**Q.** How did the ED50 (Cavia porcellus) turn out when `O=C(O)C1(c2ccc3c(c2)OC[C@H](Cc2ccc(-c4ccccc4)cc2)[C@H]3O)CCCC1` was run?
**A.** The ED50 was 0.26 mg/kg.

**Q.** And the IC50 [1]?
**A.** Its IC50 is 30.3 nM.

**Q.** What about the IC50 (Homo sapiens [2]) of the same compound?
**A.** The IC50 was 5.2 nM.

**Q.** What about the ED50 (Mus musculus) of the same compound?
**A.** Its ED50 is 4.2 mg/kg.

**Q.** And the IC50 (Homo sapiens [3])?
**A.** Its IC50 is 430 nM.

**Q.** And the inhibition [4]?
**A.** The inhibition was “inactive”.
